# Laboratory results published in patent US20150314021A1, “STERILIZATION METHOD COMPRISING STERILIZATION FLUID AND ULTRASONICALLY GERERATED CAVITATION MICROBUBBLES” (DEVIS TECHNOLOGIES INC., priority 2012, published 2015).
# Like-named read-outs stand apart in the source and are kept apart here.
# What was measured:
# [1] = test system: Bacillus atrophaeus and Bacillus stearothermophilus; assay: Reduction in viable cell count after 5 min exposure to sterilant and/or ultrasound; assay type: cell-based
# Protocol: Comparative testing with exposure for 5 min to ultrasound at 250 kHz, 500 kHz and 1 MHz and using ultrasound and sterilant in separation as well as in combination was conducted and the reduction in viable cell count was determined using standard methodology.
# [2] = test system: Bacillus atrophaeus and Bacillus stearothermophilus; assay: Growth of surviving bacteria colonies after exposure; assay type: cell-based; details: 500 kHz test; observed at 24, 48 and 96 hours (FIGS. 8 and 9)
# Text: In the parallel tests with hydrogen peroxide and ultrasound, the effect was much less significant (see FIG. 10) than with the test series using ultrasound and ozone. The effect seems to be more evident with ozone than with hydrogen peroxide. […] At the very least their reproductive system appears to have been severely compromised.
# [3] = 500 kHz test series, cells suspended in distilled water, ozone 3.7 ppm, hydrogen peroxide 1.5% w/w, glutaraldehyde 0.2%, control normalized 100%
Structure (SMILES),"Percentage reduction in number of viable cells upon a 5 minute exposure [1, 3]","inhibition at 1.5 % strength ([1]; 1 MHz test series, cells suspended in distilled water, ozone 3.7 ppm, hydrogen peroxide 1.5% w/w, control normalized 100%, read-out: Percentage reduction in number of viable cells upon a 5 minute exposure)","inhibition at 1.5 % strength ([1]; read-out: Percentage reduction in number of viable cells upon a 5 minute exposure, 500 kHz test series, cells suspended in distilled water, ozone 3.7 ppm, hydrogen peroxide 1.5% w/w, glutaraldehyde 0.2%, control normalized 100%)",growth of surviving bacteria colonies after exposure [2],"Percentage reduction in number of viable cells upon a 5 minute exposure ([1]; 1 MHz test series, cells suspended in distilled water, ozone 3.7 ppm, hydrogen peroxide 1.5% w/w, control normalized 100%)"
"O=CCCCC=O [Glutaraldehyde, glutaraldehdye]",86%,–,–,–,–
"OO [Hydrogen Peroxide, hydrogen peroxide]",–,68%,59%,–,–
O=[O+][O-] [Ozone],81%,–,–,bacteria colonies were visible after 24 hours,71%
